Measured values taken from the SangsterLogP compilation.

Compound	logP
C[C@@H](Oc1ccc(Oc2ccc(C#N)cc2F)cc1)C(=O)O	3.08
Cc1cc(C(F)(F)F)nn1CC(=O)N1CCC(c2nc(C3=NOC(c4c(F)cccc4F)C3)cs2)CC1 (stereo not drawn)	3.6
CNC(=O)Oc1cccc2c1OC(C)(C)C2	1.59
CC(C1CC1)C(O)(Cn1cncn1)c1ccc(Cl)cc1 (stereo not drawn)	2.99
O=C1CC(C(=O)O)CC(=O)C1=C(O)C1CC1 (stereo not drawn)	1.42
O=[N+]([O-])c1ccccc1	1.79
CC(C)(C)C(O)C(Cc1ccc(Cl)cc1Cl)n1cncn1 (stereo not drawn)	3.69
COP(=S)(OC)SCN1C(=O)c2ccccc2C1=O	2.71
Cc1cc(Cl)ccc1OCC(=O)O	2.79
Fc1ccc(Oc2ccnc3cc(Cl)cc(Cl)c23)cc1	5.27
CC(C)CC(C)c1sccc1NC(=O)c1cn(C)nc1C(F)(F)F (stereo not drawn)	3.96
CCCCC(O)(Cn1cncn1)c1ccc(Cl)cc1Cl (stereo not drawn)	3.8
CNC(=O)Oc1ccccc1OC(C)C	1.55
Cc1cc(C)nc(NC(=O)NS(=O)(=O)c2ccccc2C(=O)OC2COC2)n1	1.07
CN(C)C(=O)Nc1ccc(Cl)c(Cl)c1	2.74
FC(F)C(F)(F)OCC(Cn1cncn1)c1ccc(Cl)cc1Cl (stereo not drawn)	3.49
CC(C)(C)[C@H](O)[C@H](Cc1ccc(Cl)cc1)n1cncn1	3.09
c1ccc(-c2ccc(C(c3ccccc3)n3ccnc3)cc2)cc1 (stereo not drawn)	5.12
CCCCC(C#N)(Cn1cncn1)c1ccc(Cl)cc1 (stereo not drawn)	3.06
Cc1ccc(CO)cc1	1.62
CCOc1cc(Oc2ccc(C(F)(F)F)cc2Cl)ccc1[N+](=O)[O-]	5.19
C#CC(C)(C)NC(=O)c1cc(Cl)cc(Cl)c1	3.23
Cc1[nH]n(C)c(=O)c1C(=O)c1ccc(C(F)(F)F)cc1S(C)(=O)=O	0.63

Compound	logP
OC(Cn1cncn1)(c1ccc(F)cc1)c1ccccc1F (stereo not drawn)	2.26
CCOC(=O)c1cccnc1	1.38
CCOC(=O)c1ccc([N+](=O)[O-])cc1	2.43
C#CCOc1ccc(CCNC(=O)C(OCC#C)c2ccc(Cl)cc2)cc1OC (stereo not drawn)	3.16
O=Cc1cccc(Oc2ccccc2)c1	3.32
CC(C)N1C(=O)N(c2ccccc2)CSC1=NC(C)(C)C	4.92
O=[N+]([O-])C=C1CCCN1Cc1ccc(Cl)nc1	0.7
CC(C)N1C(=O)c2ccccc2NS1(=O)=O	2.75
Cc1cc(C)nc(Nc2ccccc2)n1	2.84
O=[N+]([O-])c1c(Cl)c(Cl)cc(Cl)c1Cl	4.28
CS(=O)(=O)c1ccccc1	0.51
C[Si](Cn1cncn1)(c1ccc(F)cc1)c1ccc(F)cc1	3.76
CNC(=O)Nc1ccc(C(=O)O)cc1	1.16
CC(C)(C)C(=O)C(Oc1ccc(Cl)cc1)n1cncn1 (stereo not drawn)	3.11
CC1=C(C(=O)Nc2ccccc2)SCCO1	2.08
Cc1ccc(NC(=O)N(C)C)cc1Cl	2.43
COC(=O)C(C)N(C(=O)c1ccco1)c1c(C)cccc1C (stereo not drawn)	2.59
CC1=CC(=O)CC(C)(C)[C@@]1(O)/C=C/C(C)=C\C(=O)O	1.71
O=[N+]([O-])c1ccc(Oc2ccccc2)cc1	3.66
COC(=O)c1ccc(Cl)cc1	2.81
c1ccc(Oc2ccccn2)cc1	2.36
c1ccc(-c2ccccn2)nc1	1.72
COC(=O)C=Cc1ccccc1	2.67

Compound	logP
CC(C)N(C)S(=O)(=O)NC(=O)c1cc(-n2c(=O)cc(C(F)(F)F)n(C)c2=O)c(F)cc1Cl	2.33
Oc1cccc2cccnc12	1.93
CCCCn1nnc2ccccc21	2.52
CC(C)N(Cc1ccccc1)C(=O)C(C)(C)C	2.98
COC(=O)NCc1cc(/C(C)=N/OCc2cccc(C)n2)ccc1Cl	3.64
CCOC(=O)C(C)Oc1ccc(Oc2ccc(C(F)(F)F)cn2)cc1 (stereo not drawn)	3.9
Nc1cc(Cl)cc(Cl)c1	2.89
CC1(C)CCC(Cc2ccc(Cl)cc2)C1(O)Cn1cncn1 (stereo not drawn)	3.82
CC(=O)Nc1ccccn1	0.56
Cc1cccc2sc3nncn3c12	1.42
CO/N=C(/C(=O)OC)c1ccccc1CO/N=C(\C)c1cccc(C(F)(F)F)c1	4.45
CNC(=O)Nc1ccc(S(=O)(=O)NC(=O)c2ccccc2OC)cc1	1.95
CC(Oc1ccc(Oc2ccc(Cl)cc2Cl)cc1)C(=O)O (stereo not drawn)	4.69
CCCCOC(=O)c1ccccc1C(=O)OCCCC	4.46
COc1nc(C)nc(NC(=O)NS(=O)(=O)c2ccccc2CCC(F)(F)F)n1	2.87
c1ccc(-c2ccccc2)cc1	3.96
CC(=O)Nc1ccccc1C(F)(F)F	1.14
CCNc1nc(Cl)nc(NC(C)C)n1	2.54
N#Cc1c(Cl)c(Cl)c(Cl)c(C#N)c1Cl	2.93
c1ccc2ccccc2c1	3.37
c1ccc(-c2ccncn2)cc1	1.9
C[C@@H](Oc1ccc(Oc2ccc(C(F)(F)F)cn2)cc1)C(=O)O	3.21
CCN(CC)C(=O)C(C)Oc1cccc2ccccc12 (stereo not drawn)	3.22

Compound	logP
CS(=O)(=O)c1ccc(C(=O)C2C(=O)CCCC2=O)c([N+](=O)[O-])c1	0.9
CS(=O)(=O)c1ccc(C(=O)C2C(=O)CCCC2=O)c(Cl)c1COCC(F)(F)F	2.15
COC(=O)C(C)Oc1ccc(Oc2ccc(Cl)cc2Cl)cc1 (stereo not drawn)	4.89
CCCOC(=O)C(C)Oc1ccc(Oc2ccc(C(F)(F)F)cn2)cc1 (stereo not drawn)	4.44
COCC(=O)N(c1c(C)cccc1C)C(C)C(=O)OC (stereo not drawn)	1.6
N#CN=C1SCCN1Cc1ccc(Cl)nc1	1.26
C=CCN(CC=C)C(=O)C(Cl)Cl	1.77
Cc1nc(N(C)C)nc(OC(=O)N(C)C)c1C	1.75
CCN1C(=O)C(=O)c2ccc(OC)cc2C1=O	1.4
COc1c(Cl)ccc(Cl)c1C(=O)O	2.52
c1ccc2[nH]cnc2c1	1.29
CON(C(=O)c1cn(C)nc1C(F)F)C(C)Cc1c(Cl)cc(Cl)cc1Cl (stereo not drawn)	3.77
N#Cc1cnc2ccccc2c1	1.64
CC1COC(Cn2cncn2)(c2ccc(Oc3ccc(Cl)cc3)cc2Cl)O1 (stereo not drawn)	4.24
CC(=O)Nc1cccnc1	0.38
COC(=O)c1cc(Oc2ccc(Cl)cc2Cl)ccc1[N+](=O)[O-]	4.53
CSc1nnc(C(C)(C)C)c(=O)n1N	1.61
Nc1ccc(C(F)(F)F)cc1	2.31
c1ccc2[nH]ccc2c1	2.15
O=C(O)COc1ccc(Cl)cc1Cl	2.66
CC(C)Oc1cccc(NC(=O)c2ccccc2C(F)(F)F)c1	3.59
COC(=O)c1ccccc1C(=O)OC	1.49
CCCN(CCOc1c(Cl)cc(Cl)cc1Cl)C(=O)n1ccnc1	4.02

Compound	logP
CO/C=C(/C(=O)OC)c1ccccc1Oc1cc(Oc2ccccc2C#N)ncn1	2.53
CCOC(=O)C1CC(=O)C(=C(O)C2CC2)C(=O)C1 (stereo not drawn)	2.02
Nc1c(Cl)cccc1Cl	2.75
COC(=O)N(C(=O)N1CO[C@@]2(C(=O)OC)Cc3cc(Cl)ccc3C2=N1)c1ccc(OC(F)(F)F)cc1	4.75
O=C(NCCc1ncc(C(F)(F)F)cc1Cl)c1ccccc1C(F)(F)F	3.26
CC(=NC#N)N(C)Cc1ccc(Cl)nc1	0.82
COC(=O)Cc1ccccc1	1.75
CCON=C(CC)C1=C(O)CC(c2c(C)cc(C)cc2C)CC1=O (stereo not drawn)	4.77
CCCCOC(=O)C(C)Oc1ccc(Oc2ccc(C(F)(F)F)cn2)cc1 (stereo not drawn)	5.01
CCc1cccc(C)c1N(C(=O)CCl)C(C)COC (stereo not drawn)	3.01
CCNc1nc(Cl)nc(NCC)n1	2.09
CC(C)(C)C(O)(CCc1ccc(Cl)cc1)Cn1cncn1 (stereo not drawn)	3.59
CC(C)N(C(=O)CCl)c1ccccc1	2.12
c1ccc(Sc2ccccc2)cc1	4.43
CC(C)(C)N(NC(=O)c1ccccc1)C(=O)c1ccccc1	2.43
Cn1cc(C(=O)Nc2cccc3c2[C@@H]2CC[C@H]3C2=C(Cl)Cl)c(C(F)F)n1	4.34
CCOCn1c(-c2ccc(Cl)cc2)c(C#N)c(Br)c1C(F)(F)F	5.24
COC(=O)c1ccccc1CS(=O)(=O)NC(=O)Nc1nc(OC)cc(OC)n1	2.36
c1ccc2c(c1)Nc1ccccc1S2	4.08
N#Cc1c[nH]cc1-c1cccc2c1OC(F)(F)O2	4.16
COc1nc(C)nc(NC(=O)NS(=O)(=O)c2ccccc2OCCCl)n1	1.72
CCC(=O)c1ccccc1	2.16
Fc1ccc([C@@]2(Cn3cncn3)O[C@@H]2c2ccccc2Cl)cc1	3.3

Compound	logP
CCCC(=O)c1c(C)cc(C)c(C2CC(=O)C(/C(CC)=N/OCC)=C(O)C2)c1C (stereo not drawn)	4.74
CO/C=C(/C(=O)OC)c1ccccc1COc1cc(C(F)(F)F)nc(OC(C)C)n1	4.18
CS(=O)(=O)c1ccc(C(=O)C2C(=O)CCCC2=O)c(Cl)c1	1.2
CCCC(=O)c1ccccc1	2.68
CN(C)C(=O)Nc1cc(C(C)(C)C)on1	1.91
CCSC(=O)N(CC(C)C)CC(C)C	4.1
CC1(c2ccc(Oc3ccccc3)cc2)OC(=O)N(Nc2ccccc2)C1=O (stereo not drawn)	4.78
COC(=O)c1ccccc1S(=O)(=O)NC(=O)Nc1nc(OC(F)F)cc(OC(F)F)n1	3.49
CCCCc1c(C)nc(NCC)[nH]c1=O	2.23
CO/N=C(/C1=NOCCO1)c1ccccc1Oc1ncnc(Oc2ccccc2Cl)c1F	2.95
N#Cc1cc(Br)c(O)c(Br)c1	2.9
O=C(CCl)Nc1ccccc1	1.54
O=c1c2cc(F)ccc2nc(-n2cncn2)n1-c1ccc(Cl)cc1Cl	3.21
COc1cc(OC)nc(NC(=O)NS(=O)(=O)c2ncccc2OCC(F)(F)F)n1	1.85
Nc1ccc(Cl)c(Cl)c1	2.62
CCCCCOC(=O)C(C)Oc1ccc(Oc2ccc(C(F)(F)F)cn2)cc1 (stereo not drawn)	5.6
Cc1cc(C2CC2)nc(Nc2ccccc2)n1	3.91
CCCC1COC(Cn2cncn2)(c2ccc(Cl)cc2Cl)O1 (stereo not drawn)	3.57
